Data as given in US20090283473A1, “PLANT MATERIALS EXTRACTION METHOD” (Xylon Biotechnologies Ltd., priority 2002, published 2009).

Key:
Type in all cases: cell-based
[1] = tested on: Seven species of bacteria and one species of fungus; test: Disk diffusion assay, whole panel; settings: all bacteria and fungus of the screening
Source text: (§1) Microorganisms: Laboratory strains of bacteria and fungus were obtained from Dr. Neil Towers' and Dr. Jovel's lab, The University of British Columbia. Seven species of bacteria and one species of fungus will be used in the screening process. The bacteria strains consisted of Staphylococcus aureus, methicillin resistant Staphylococcus aureus, Bacillus subtilis and Enterococcus faecalis, Escherichia coli, Pseudomonas aeruginosa, and Salmonella typhimurium. The fungal species was Candida albicans.
(§2) Methods: Disk diffusion assay on agar plates inoculated with the organisms being studies. The plates were divided into quadrants or sixths using a black marking pen. In quadrant 1 and 2, negative and positive controls were run (no treatment and gentamicin). Test compounds were run on the remaining available portions.

Enterococcus faecalis = test: Disk diffusion assay on agar plates; design: key: “+” active; “−” not active
Source text: as §1, §2

Candida albicans = test: Disk diffusion assay on agar plates; design: key: “+” active; “−” not active
Source text: as §1, §2

Pseudomonas aeruginosa = test: Disk diffusion assay on agar plates; design: key: “+” active; “−” not active
Source text: as §1, §2

Row | Compound | anti-microbial activity across the panel (in words) [1] | Anti-microbial activity E.f. (Enterococcus faecalis) | Anti-microbial activity C.a (Candida albicans) | Anti-microbial activity P.a (Pseudomonas aeruginosa)
1 | CC(C)c1cccc(=O)c(O)c1 [Hinokitiol standard, 2,4,6-Cycloheptatrien-1-one,2-hydroxy-4-(1-methylethyl)] | demonstrated activities against all the bacteria and fungus |  |  | 
2 | Gentamicin | active against all the tested bacteria but not against C. albicans | + | − | 
3 | CC1(C)C=CC=C(C(=O)O)C=C1 [Thujic acid standard, Thujic acid] | showed activities against some bacteria and fungus |  |  | −
